{
  "source": "patent US8574563B2",
  "about": "(Bristol-Myers Squibb Company, priority 2006, dated 2013)",
  "tested_on": "HCV 1b-377-neo replicon cells",
  "experiment": "HCV replicon assay, HCV 1b-377-neo replicon cells (1b FRET)",
  "assay_type": "cell-based, Hepatitis C virus genotype 1b",
  "conditions": "Hepatitis C virus, HCV 1b-377-neo replicon cells; HCV 1b genotype; read-out: EC50 range against HCV 1b (Table 2, Range)",
  "summary_of_the_method": "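Compounds tested in HCV genotype 1b-377-neo replicon cells with a FRET read-out. Cells resistant to a reference NS5A inhibitor through a Y2065H NS5A mutation were run alongside wild-type cells.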",
  "data": [
    {"smiles": "COC(=O)N[C@@H](C)C(=O)N1C[C@H](F)C[C@H]1c1ncc(-c2ccc(-c3ccc(-c4cnc([C@@H]5C[C@@H](F)CN5C(=O)[C@H](C)NC(=O)OC)[nH]4)cc3)cc2)[nH]1", "note": "[JG-3, methyl ((1S)-2-((2S,4R)-4-fluoro-2-(5-(4′-(2-((2S,4R)-4-fluoro-1-(N-(methoxycarbonyl)-L-alanyl)-2-pyrrolidinyl)-1H-imidazol-5-yl)-4-biphenylyl)-1H-imidazol-2-yl)-1-pyrrolidinyl)-1-methyl-2-oxoethyl)carbamate]", "values": [
      {"measurement": "EC50", "value": "0.001 to 0.999", "unit": "nM"}
    ]},
    {"smiles": "COC(=O)N[C@@H](C)C(=O)N1C[C@H](O)C[C@H]1c1ncc(-c2ccc(-c3ccc(-c4cnc([C@@H]5C[C@@H](O)CN5C(=O)[C@H](C)NC(=O)OC)[nH]4)cc3)cc2)[nH]1", "note": "[JG-4]", "values": [
      {"measurement": "EC50", "value": "1 to 99", "unit": "nM"}
    ]},
    {"smiles": "COC(=O)N[C@H](C(=O)N1C[C@H](O)C[C@H]1c1ncc(-c2ccc(-c3ccc(-c4cnc([C@@H]5C[C@@H](O)CN5C(=O)[C@@H](NC(=O)OC)C(C)C)[nH]4)cc3)cc2)[nH]1)C(C)C", "note": "[JG-5, methyl ((1S)-1-(((2S,4R)-4-hydroxy-2-(5-(4′-(2-((2S,4R)-4-hydroxy-1-((2S)-2-((methoxycarbonyl)amino)-3-methylbutanoyl)-2-pyrrolidinyl)-1H-imidazol-5-yl)-4-biphenylyl)-1H-imidazol-2-yl)-1-pyrrolidinyl)carbonyl)-2-methylpropyl)carbamate]", "values": [
      {"measurement": "EC50", "value": "0.001 to 0.999", "unit": "nM"}
    ]},
    {"smiles": "COC(=O)N[C@H](C(=O)N1C[C@H](O)C[C@H]1c1ncc(-c2ccc(-c3ccc(-c4cnc([C@@H]5C[C@@H](O)CN5C(=O)[C@@H](NC(=O)OC)C5CC5)[nH]4)cc3)cc2)[nH]1)C1CC1", "note": "[JG-6, dimethyl (4,4′-biphenyldiylbis(1H-imidazole-5,2-diyl((2S,4R)-4-hydroxy-2,1-pyrrolidinediyl)((1S)-1-cyclopropyl-2-oxo-2,1-ethanediyl)))biscarbamate]", "values": [
      {"measurement": "EC50", "value": "1 to 99", "unit": "nM"}
    ]},
    {"smiles": "CCN(CC)[C@@H](C(=O)N1C[C@@H](O)C[C@H]1c1ncc(-c2ccc(-c3ccc(-c4cnc([C@@H]5C[C@H](O)CN5C(=O)[C@@H](c5ccccc5)N(CC)CC)[nH]4)cc3)cc2)[nH]1)c1ccccc1", "note": "[JG-7, (3S,5S,3′S,5′S)-5,5′-(4,4′-biphenyldiylbis(1H-imidazole-5,2-diyl))bis(1-((2R)-2-(diethylamino)-2-phenylacetyl)-3-pyrrolidinol)]", "values": [
      {"measurement": "EC50", "value": "0.001 to 0.999", "unit": "nM"}
    ]},
    {"smiles": "COC(=O)N[C@@H](C)C(=O)N1C[C@@H](O)C[C@H]1c1ncc(-c2ccc(-c3ccc(-c4cnc([C@@H]5C[C@H](O)CN5C(=O)[C@H](C)NC(=O)OC)[nH]4)cc3)cc2)[nH]1", "note": "[JG-8, methyl ((1S)-2-((2S,4S)-4-hydroxy-2-(5-(4′-(2-((2S,4S)-4-hydroxy-1-(N-(methoxycarbonyl)-L-alanyl)-2-pyrrolidinyl)-1H-imidazol-5-yl)-4-biphenylyl)-1H-imidazol-2-yl)-1-pyrrolidinyl)-1-methyl-2-oxoethyl)carbamate]", "values": [
      {"measurement": "EC50", "value": "0.001 to 0.999", "unit": "nM"}
    ]},
    {"smiles": "COC(=O)N[C@H](C(=O)N1C[C@@H](O)C[C@H]1c1ncc(-c2ccc(-c3ccc(-c4cnc([C@@H]5C[C@H](O)CN5C(=O)[C@@H](NC(=O)OC)C(C)C)[nH]4)cc3)cc2)[nH]1)C(C)C", "note": "[JG-9, methyl ((1S)-1-(((2S,4S)-4-hydroxy-2-(5-(4′-(2-((2S,4S)-4-hydroxy-1-((2S)-2-((methoxycarbonyl)amino)-3-methylbutanoyl)-2-pyrrolidinyl)-1H-imidazol-5-yl)-4-biphenylyl)-1H-imidazol-2-yl)-1-pyrrolidinyl)carbonyl)-2-methylpropyl)carbamate]", "values": [
      {"measurement": "EC50", "value": "0.001 to 0.999", "unit": "nM"}
    ]},
    {"smiles": "COC(=O)N[C@H](C(=O)N1C[C@@H](F)C[C@H]1c1ncc(-c2ccc(-c3ccc(-c4cnc([C@@H]5C[C@H](F)CN5C(=O)[C@@H](NC(=O)OC)C(C)C)[nH]4)cc3)cc2)[nH]1)C(C)C", "note": "[JG-10, methyl ((1S)-1-(((2S,4S)-4-fluoro-2-(5-(4′-(2-((2S,4S)-4-fluoro-1-((2S)-2-((methoxycarbonyl)amino)-3-methylbutanoyl)-2-pyrrolidinyl)-1H-imidazol-5-yl)-4-biphenylyl)-1H-imidazol-2-yl)-1-pyrrolidinyl)carbonyl)-2-methylpropyl)carbamate]", "values": [
      {"measurement": "EC50", "value": "1 to 99", "unit": "nM"}
    ]},
    {"smiles": "COC(=O)N[C@@H](CC(C)C)C(=O)N1C[C@H](F)C[C@H]1c1ncc(-c2ccc(-c3ccc(-c4cnc([C@@H]5C[C@@H](F)CN5C(=O)[C@H](CC(C)C)NC(=O)OC)[nH]4)cc3)cc2)[nH]1", "note": "[JG-12, methyl ((1S)-1-(((2S,4R)-4-fluoro-2-(5-(4′-(2-((2S,4R)-4-fluoro-1-((2S)-2-((methoxycarbonyl)amino)-4-methylpentanoyl)-2-pyrrolidinyl)-1H-imidazol-5-yl)-4-biphenylyl)-1H-imidazol-2-yl)-1-pyrrolidinyl)carbonyl)-3-methylbutyl)carbamate]", "values": [
      {"measurement": "EC50", "value": "0.001 to 0.999", "unit": "nM"}
    ]},
    {"smiles": "COC(=O)N[C@@H](C)C(=O)N1C[C@@H](F)C[C@H]1c1ncc(-c2ccc(-c3ccc(-c4cnc([C@@H]5C[C@H](F)CN5C(=O)[C@H](C)NC(=O)OC)[nH]4)cc3)cc2)[nH]1", "note": "[JG-13, methyl ((1S)-2-((2S,4S)-4-fluoro-2-(5-(4′-(2-((2S,4S)-4-fluoro-1-(N-(methoxycarbonyl)-L-alanyl)-2-pyrrolidinyl)-1H-imidazol-5-yl)-4-biphenylyl)-1H-imidazol-2-yl)-1-pyrrolidinyl)-1-methyl-2-oxoethyl)carbamate]", "values": [
      {"measurement": "EC50", "value": "1 to 99", "unit": "nM"}
    ]},
    {"smiles": "CCN(CC)[C@@H](C(=O)N1C[C@@H](F)C[C@H]1c1ncc(-c2ccc(-c3ccc(-c4cnc([C@@H]5C[C@H](F)CN5C(=O)[C@H](C)NC(=O)OC)[nH]4)cc3)cc2)[nH]1)c1ccccc1", "note": "[JG-14, methyl ((1S)-2-((2S,4S)-2-(5-(4′-(2-((2S,4S)-1-((2R)-2-(diethylamino)-2-phenylacetyl)-4-fluoro-2-pyrrolidinyl)-1H-imidazol-5-yl)-4-biphenylyl)-1H-imidazol-2-yl)-4-fluoro-1-pyrrolidinyl)-1-methyl-2-oxoethyl)carbamate]", "values": [
      {"measurement": "EC50", "value": "0.001 to 0.999", "unit": "nM"}
    ]},
    {"smiles": "CCN(CC)[C@@H](C(=O)N1C[C@@H](F)C[C@H]1c1ncc(-c2ccc(-c3ccc(-c4cnc([C@@H]5C[C@H](F)CN5C(=O)[C@@H](NC(=O)OC)C(C)C)[nH]4)cc3)cc2)[nH]1)c1ccccc1", "note": "[JG-15, methyl ((1S)-1-(((2S,4S)-2-(5-(4′-(2-((2S,4S)-1-((2R)-2-(diethylamino)-2-phenylacetyl)-4-fluoro-2-pyrrolidinyl)-1H-imidazol-5-yl)-4-biphenylyl)-1H-imidazol-2-yl)-4-fluoro-1-pyrrolidinyl)carbonyl)-2-methylpropyl)carbamate]", "values": [
      {"measurement": "EC50", "value": "0.001 to 0.999", "unit": "nM"}
    ]},
    {"smiles": "COC(=O)N[C@H](C(=O)N1C[C@H](F)C[C@H]1c1ncc(-c2ccc(-c3ccc(-c4cnc([C@@H]5C[C@@H](F)CN5C(=O)[C@@H](NC(=O)OC)C(C)C)[nH]4)cc3)cc2)[nH]1)C(C)C", "note": "[JG-16, methyl ((1S)-1-(((2S,4R)-4-fluoro-2-(5-(4′-(2-((2S,4R)-4-fluoro-1-((2S)-2-((methoxycarbonyl)amino)-3-methylbutanoyl)-2-pyrrolidinyl)-1H-imidazol-5-yl)-4-biphenylyl)-1H-imidazol-2-yl)-1-pyrrolidinyl)carbonyl)-2-methylpropyl)carbamate]", "values": [
      {"measurement": "EC50", "value": "0.001 to 0.999", "unit": "nM"}
    ]},
    {"smiles": "CCN(CC)[C@@H](C(=O)N1C[C@H](F)C[C@H]1c1ncc(-c2ccc(-c3ccc(-c4cnc([C@@H]5C[C@@H](F)CN5C(=O)[C@@H](c5ccccc5)N(CC)CC)[nH]4)cc3)cc2)[nH]1)c1ccccc1", "note": "[JG-17, (1R,1′R)-2,2′-(4,4′-biphenyldiylbis(1H-imidazole-5,2-diyl((2S,4R)-4-fluoro-2,1-pyrrolidinediyl)))bis(N,N-diethyl-2-oxo-1-phenylethanamine)]", "values": [
      {"measurement": "EC50", "value": "0.001 to 0.999", "unit": "nM"}
    ]},
    {"smiles": "O=C([C@@H](O)C1CCCCC1)N1CCC[C@H]1c1ncc(-c2ccc(-c3ccc(-c4cnc([C@@H]5CCCN5C(=O)[C@@H](O)C5CCCCC5)[nH]4)cc3)cc2)[nH]1", "note": "[LS2, (1S,1′S)-2,2′-(4,4′-biphenyldiylbis(1H-imidazole-5,2-diyl(2S)-2,1-pyrrolidinediyl))bis(1-cyclohexyl-2-oxoethanol)]", "values": [
      {"measurement": "EC50", "value": "1 to 99", "unit": "nM"}
    ]},
    {"smiles": "CC(C)C[C@H](O)C(=O)N1CCC[C@H]1c1ncc(-c2ccc(-c3ccc(-c4cnc([C@@H]5CCCN5C(=O)[C@@H](O)CC(C)C)[nH]4)cc3)cc2)[nH]1", "note": "[LS3, (2S,2′S)-1,1′-(4,4′-biphenyldiylbis(1H-imidazole-5,2-diyl(2S)-2,1-pyrrolidinediyl))bis(4-methyl-1-oxo-2-pentanol)]", "values": [
      {"measurement": "EC50", "value": "1 to 99", "unit": "nM"}
    ]},
    {"smiles": "CC(C)[C@H](O)C(=O)N1CCC[C@H]1c1ncc(-c2ccc(-c3ccc(-c4cnc([C@@H]5CCCN5C(=O)[C@@H](O)C(C)C)[nH]4)cc3)cc2)[nH]1", "note": "[LS4, (2S,2′S)-1,1′-(4,4′-biphenyldiylbis(1H-imidazole-5,2-diyl(2S)-2,1-pyrrolidinediyl))bis(3-methyl-1-oxo-2-butanol)]", "values": [
      {"measurement": "EC50", "value": "1 to 99", "unit": "nM"}
    ]},
    {"smiles": "CN[C@@H](C)C(=O)N1CCC[C@H]1c1ncc(-c2ccc(-c3ccc(-c4cnc([C@@H]5CCCN5C(=O)[C@H](C)NC)[nH]4)cc3)cc2)[nH]1", "note": "[LS6, (2S,2′S)-1,1′-(4,4′-biphenyldiylbis(1H-imidazole-5,2-diyl(2S)-2,1-pyrrolidinediyl))bis(N-methyl-1-oxo-2-propanamine)]", "values": [
      {"measurement": "EC50", "value": "100 to 999", "unit": "nM"}
    ]},
    {"smiles": "O=C1N[C@H](C(=O)N2CCC[C@H]2c2ncc(-c3ccc(-c4ccc(-c5cnc([C@@H]6CCCN6C(=O)[C@@H]6CCOC(=O)N6)[nH]5)cc4)cc3)[nH]2)CCO1", "note": "[LS11, (4S,4′S)-4,4′-(4,4′-biphenyldiylbis(1H-imidazole-5,2-diyl(2S)-2,1-pyrrolidinediylcarbonyl))bis(1,3-oxazinan-2-one)]", "values": [
      {"measurement": "EC50", "value": "1000 to 10000", "unit": "nM"}
    ]},
    {"smiles": "CCN(CC)[C@@H](C(=O)N1CCC[C@H]1c1ncc(-c2ccc(-c3ccc(-c4cnc([C@@H]5CCCN5C(=O)[C@@H](NC(=O)OC)C5CCOCC5)[nH]4)cc3)cc2)[nH]1)c1ccccc1", "note": "[LS14, methyl ((1S)-2-((2S)-2-(5-(4′-(2-((2S)-1-((2R)-2-(diethylamino)-2-phenylacetyl)-2-pyrrolidinyl)-1H-imidazol-5-yl)-4-biphenylyl)-1H-imidazol-2-yl)-1-pyrrolidinyl)-2-oxo-1-(tetrahydro-2H-pyran-4-yl)ethyl)carbamate]", "values": [
      {"measurement": "EC50", "value": "0.001 to 0.999", "unit": "nM"}
    ]}
  ]
}
